Where two headings read alike, the source gives them in different places.
Assays:
Format in all cases: cell-based
EGFR L858R = EGFR L858R (Homo sapiens, UniProt P00533, L858R); assay: EGFR degradation, Total EGFR (L858R-specific) HTRF, NCI-H3255; design: NCI-H3255 (harboring EGFR heterozygous L858R mutation); host or cells: NCI-H3255; details: NCI-H3255 cells, 6 hours, Total EGFR HTRF, read-out: H3255 EGFR DC50
Summary of the method: (§1)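 FRET signal from HTRF kits measured phospho-EGFR at pY1068 or total EGFR after 6 h treatment at 37 °C. Compounds ran as 11-point half-log dilutions from 10 μM in duplicate, in cells in phenol red-free RPMI with 10% FBS. Concentrations giving 50% inhibition or degradation were reported as IC50 or DC50.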

EGFR L858R-T790M-C797S = target: T1, EGFR L858R-T790M-C797S (Homo sapiens, UniProt P00533, C797S/L858R/T790M); assay: EGFR degradation, Total EGFR (L858R-specific) HTRF, NCI-H1975+CS; details: 6 hours, Total EGFR HTRF
T1 construct: generated using CRISPR technology to introduce the additional C797S mutation by Horizon Discovery; host or cells: NCI-H1975+CS (CRISPR knock-in of C797S)
Description: NCI-H1975 (harboring EGFR heterozygous L858R-T790M mutations) and NCI-H3255 (harboring EGFR heterozygous L858R mutation) were purchased from ATCC and NCI, respectively. NCI-H1975+CS (harboring EGFR heterozygous L858R-T790M-C797S mutations) was generated using CRISPR technology to introduce the additional C797S mutation by Horizon Discovery. A431 (harboring EGFR wildtype) was purchased from ATCC. RPMI 1640 no-phenol red medium and fetal bovine serum (FBS) were purchased from Gibco (Grand Island, NY, USA). Cell culture flasks and 384-well microplates were acquired from VWR (Radnor, PA, USA). Phosphorylated (pY1068) EGFR and Total EGFR (using L858R-specific detection antibody and pan-EGFR antibody for EGFR mutant cell lines and EGFR wild-type cell lines, respectively) HTRF assay kits were purchased from Cisbio (Bedford, MA, USA).
Degradation of EGFR protein containing L858R mutation or wild-type was determined based on quantification of FRET signal using a Total EGFR (L858R-specific or pan-EGFR detecting) HTRF assay kit. Phospho-EGFR (pEGFR) inhibition was determined based on quantification of FRET signal using a pY1068 EGFR HTRF assay kit. In separate assay plates, test compounds were added to the 384-well plate from a top concentration of 10 μM with 11 points, half log titration in duplicates. For each assay, 12.5 uL of cells suspended in assay media (RPMI 1640 no-phenol red medium+10% FBS) at cell densities indicated for each cell line in Table 8 below were dispensed using a multi-channel pipette to 384-well low volume white HTRF microplates containing a duplicate concentration range of test compounds and DMSO controls. The plates were kept at 37° C. with 5% CO2 for 6 hours and then incubated with either phospho EGFR or Total EGFR HTRF detection antibodies according to the cell line and EGFR mutant being assayed. Cells treated in the absence of the test compound were the negative control. Positive control was set by wells containing all reagents but no cells. FRET signal was acquired on EnVision™ Multilabel Reader (PerkinElmer, Santa Clara, CA, USA). Compound concentration that achieves 50% degradation and inhibition was reported as DC50 and IC50, respectively.

EGFR L858R-T790M = target: T2, EGFR L858R-T790M (Homo sapiens, UniProt P00533, L858R/T790M); assay: EGFR degradation, Total EGFR (L858R-specific) HTRF, NCI-H1975; details: NCI-H1975 cells, 6 hours, Total EGFR HTRF, read-out: H1975 EGFR DC50
T2 construct: NCI-H1975 (harboring EGFR heterozygous L858R-T790M mutations); host or cells: NCI-H1975
Summary of the method: as §1

[1] = Table 9A, NCI-H1975+CS cells, read-out: H1975+ CS EGFR DC50

Sequence of EGFR L858R (P00533 25-1210 L858R): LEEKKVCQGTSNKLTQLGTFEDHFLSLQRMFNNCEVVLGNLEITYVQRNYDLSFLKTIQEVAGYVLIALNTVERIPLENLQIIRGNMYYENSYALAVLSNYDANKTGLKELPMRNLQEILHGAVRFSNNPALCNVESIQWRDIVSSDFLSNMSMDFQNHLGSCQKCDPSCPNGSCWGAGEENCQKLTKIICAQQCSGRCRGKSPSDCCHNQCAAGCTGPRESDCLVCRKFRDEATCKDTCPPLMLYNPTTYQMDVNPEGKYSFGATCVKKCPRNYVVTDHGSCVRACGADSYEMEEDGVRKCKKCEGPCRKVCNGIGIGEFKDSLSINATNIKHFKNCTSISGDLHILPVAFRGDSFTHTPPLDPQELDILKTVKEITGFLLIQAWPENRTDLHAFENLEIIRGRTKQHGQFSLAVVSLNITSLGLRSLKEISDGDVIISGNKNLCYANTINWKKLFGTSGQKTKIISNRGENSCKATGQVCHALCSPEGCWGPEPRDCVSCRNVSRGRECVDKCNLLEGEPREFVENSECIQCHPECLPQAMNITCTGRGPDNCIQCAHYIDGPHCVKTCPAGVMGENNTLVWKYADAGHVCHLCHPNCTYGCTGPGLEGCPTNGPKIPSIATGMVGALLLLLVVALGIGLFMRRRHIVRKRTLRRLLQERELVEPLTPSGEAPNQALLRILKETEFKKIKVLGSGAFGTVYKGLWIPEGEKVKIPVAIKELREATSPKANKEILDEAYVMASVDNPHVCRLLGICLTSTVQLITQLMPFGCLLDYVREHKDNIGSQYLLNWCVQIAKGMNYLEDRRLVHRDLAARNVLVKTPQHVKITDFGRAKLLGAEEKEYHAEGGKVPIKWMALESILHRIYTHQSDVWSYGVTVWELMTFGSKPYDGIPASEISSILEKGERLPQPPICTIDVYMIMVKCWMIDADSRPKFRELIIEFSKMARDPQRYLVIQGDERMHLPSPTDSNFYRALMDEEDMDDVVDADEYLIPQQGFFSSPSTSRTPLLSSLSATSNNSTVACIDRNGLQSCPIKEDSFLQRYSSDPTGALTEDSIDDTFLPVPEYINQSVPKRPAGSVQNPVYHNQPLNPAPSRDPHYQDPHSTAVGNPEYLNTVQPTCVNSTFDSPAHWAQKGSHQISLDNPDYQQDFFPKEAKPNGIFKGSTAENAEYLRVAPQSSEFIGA
T1 sequence (P00533 25-1210 T790M/C797S/L858R): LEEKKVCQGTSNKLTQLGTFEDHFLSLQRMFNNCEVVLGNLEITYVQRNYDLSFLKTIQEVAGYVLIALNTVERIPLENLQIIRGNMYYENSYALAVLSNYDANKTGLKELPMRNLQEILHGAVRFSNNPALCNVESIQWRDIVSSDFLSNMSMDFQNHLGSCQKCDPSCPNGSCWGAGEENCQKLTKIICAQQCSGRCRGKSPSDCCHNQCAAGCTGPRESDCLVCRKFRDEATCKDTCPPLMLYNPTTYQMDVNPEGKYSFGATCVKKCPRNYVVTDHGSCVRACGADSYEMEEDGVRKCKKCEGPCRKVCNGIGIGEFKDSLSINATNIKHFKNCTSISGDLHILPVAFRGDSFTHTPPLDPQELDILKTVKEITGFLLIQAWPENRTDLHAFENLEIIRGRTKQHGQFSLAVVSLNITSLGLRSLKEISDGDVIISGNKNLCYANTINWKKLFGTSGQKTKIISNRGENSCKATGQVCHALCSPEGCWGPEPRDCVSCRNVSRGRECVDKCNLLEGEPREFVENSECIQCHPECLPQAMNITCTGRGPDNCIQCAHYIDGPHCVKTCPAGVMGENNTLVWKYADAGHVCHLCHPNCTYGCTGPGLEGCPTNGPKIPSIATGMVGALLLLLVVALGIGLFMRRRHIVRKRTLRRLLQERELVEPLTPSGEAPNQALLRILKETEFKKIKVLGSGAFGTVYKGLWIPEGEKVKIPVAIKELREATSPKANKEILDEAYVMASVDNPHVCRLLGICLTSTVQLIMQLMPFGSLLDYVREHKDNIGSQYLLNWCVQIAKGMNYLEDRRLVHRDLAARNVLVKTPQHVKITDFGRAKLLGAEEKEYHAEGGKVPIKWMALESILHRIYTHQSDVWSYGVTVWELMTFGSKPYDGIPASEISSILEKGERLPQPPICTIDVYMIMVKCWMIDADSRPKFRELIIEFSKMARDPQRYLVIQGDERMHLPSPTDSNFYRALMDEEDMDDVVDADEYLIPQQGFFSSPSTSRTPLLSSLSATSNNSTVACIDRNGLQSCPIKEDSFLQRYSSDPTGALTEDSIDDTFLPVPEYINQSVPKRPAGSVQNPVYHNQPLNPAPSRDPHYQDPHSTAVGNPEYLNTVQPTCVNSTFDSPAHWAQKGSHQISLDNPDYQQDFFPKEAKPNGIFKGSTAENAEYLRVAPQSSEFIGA
T2 sequence (P00533 25-1210 T790M/L858R): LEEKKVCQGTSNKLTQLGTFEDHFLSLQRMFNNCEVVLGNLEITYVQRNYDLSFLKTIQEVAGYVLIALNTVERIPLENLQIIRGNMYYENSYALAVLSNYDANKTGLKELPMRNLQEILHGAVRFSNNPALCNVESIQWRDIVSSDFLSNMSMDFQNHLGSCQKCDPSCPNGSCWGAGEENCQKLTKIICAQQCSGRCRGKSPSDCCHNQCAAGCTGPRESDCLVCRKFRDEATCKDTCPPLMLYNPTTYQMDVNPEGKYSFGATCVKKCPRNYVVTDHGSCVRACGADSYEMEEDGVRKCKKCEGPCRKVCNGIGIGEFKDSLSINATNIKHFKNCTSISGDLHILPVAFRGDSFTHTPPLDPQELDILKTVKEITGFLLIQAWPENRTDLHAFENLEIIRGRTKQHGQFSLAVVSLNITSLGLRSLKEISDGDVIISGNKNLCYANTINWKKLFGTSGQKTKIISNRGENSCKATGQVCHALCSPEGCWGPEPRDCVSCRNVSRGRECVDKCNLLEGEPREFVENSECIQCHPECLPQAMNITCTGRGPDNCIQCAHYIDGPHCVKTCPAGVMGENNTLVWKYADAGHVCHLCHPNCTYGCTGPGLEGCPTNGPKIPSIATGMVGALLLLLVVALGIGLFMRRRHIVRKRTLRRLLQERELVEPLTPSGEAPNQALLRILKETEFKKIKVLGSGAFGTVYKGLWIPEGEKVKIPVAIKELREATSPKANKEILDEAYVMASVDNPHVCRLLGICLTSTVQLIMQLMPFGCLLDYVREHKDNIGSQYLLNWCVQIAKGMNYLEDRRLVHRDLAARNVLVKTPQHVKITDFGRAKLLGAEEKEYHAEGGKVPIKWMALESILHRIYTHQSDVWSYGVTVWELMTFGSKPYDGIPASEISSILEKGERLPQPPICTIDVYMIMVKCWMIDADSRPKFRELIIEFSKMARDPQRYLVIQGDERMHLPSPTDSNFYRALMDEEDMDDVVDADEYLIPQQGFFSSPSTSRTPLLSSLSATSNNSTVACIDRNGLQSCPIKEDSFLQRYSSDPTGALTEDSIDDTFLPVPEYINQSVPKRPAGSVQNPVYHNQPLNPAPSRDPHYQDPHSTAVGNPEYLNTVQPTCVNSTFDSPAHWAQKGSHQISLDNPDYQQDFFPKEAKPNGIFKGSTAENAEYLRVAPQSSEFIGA

SMILES	DC50 (EGFR L858R; Table 9A)	DC50 (EGFR L858R-T790M-C797S; [1])	DC50 (EGFR L858R-T790M; Table 9A)	DC50 (EGFR L858R; Table 9B)	DC50 (EGFR L858R-T790M-C797S; Table 9B, NCI-H1975 C797S clone, read-out: H1975 C797S clone EGFR DC50)	DC50 (EGFR L858R-T790M; Table 9B)
O=C1CCC(Nc2ccc(C3CCN(CC(=O)N4CCC(c5ccc(-c6cc(F)c7c(c6)C(=O)N(C(C(=O)Nc6nccs6)c6ncn8c6CCC8)C7)cc5)CC4)CC3)cc2)C(=O)N1 (stereo not drawn) [Compound 21, 2-(6,7-dihydro-5H-pyrrolo[1,2-c]imidazol-1-yl)-2-(6-(4-(1-(2-(4-(4-((2,6-dioxopiperidin-3-yl)amino)phenyl)piperidin-1-yl)acetyl)piperidin-4-yl)phenyl)-4-fluoro-1-oxoisoindolin-2-yl)-N-(thiazol-2-yl)acetamide]	< 50 nM	< 50 nM	< 50 nM			
O=C1CC[C@H](Nc2ccc(C3CCN(CC(=O)N4CC5(C4)CN(c4ccc(-c6cc(F)c7c(c6)C(=O)N(C(C(=O)Nc6nccs6)c6ncn8c6CCC8)C7)cc4)C5)CC3)c(F)c2)C(=O)N1 (stereo partly drawn) [Compound 48, 2-(6,7-dihydro-5H-pyrrolo[1,2-c]imidazol-1-yl)-2-[6-[4-[2-[2-[4-[4-[[(3S)-2,6-dioxo-3-piperidyl]amino]-2-fluoro-phenyl]-1-piperidyl]acetyl]-2,6-diazaspiro[3.3]heptan-6-yl]phenyl]-4-fluoro-1-oxo-isoindolin-2-yl]-N-thiazol-2-yl-acetamide]	< 50 nM	< 50 nM	< 50 nM			
N#Cc1cc(NC2CCC(=O)NC2=O)ccc1C1CCN(CC(=O)N2CCC(Oc3ccc(-c4cc(F)c5c(c4)C(=O)N(C(C(=O)Nc4nccs4)c4ncn6c4CCC6)C5)cc3)CC2)CC1 (stereo not drawn) [Compound 37]	< 50 nM	< 50 nM	< 50 nM			
O=C1CCC(Nc2ccc(C3CCN(CC(=O)N4CC5(C4)CN(c4ccc(-c6cc(F)c7c(c6)C(=O)N(C(C(=O)Nc6nccs6)c6ncn8c6CCC8)C7)cc4)C5)CC3)cc2)C(=O)N1 (stereo not drawn) [Compound 47, 2-(6,7-dihydro-5H-pyrrolo[1,2-c]imidazol-1-yl)-2-[6-[4-[2-[2-[4-[4-[(2,6-dioxo-3-piperidyl)amino]phenyl]-1-piperidyl]acetyl]-2,6-diazaspiro[3.3]heptan-6-yl]phenyl]-4-fluoro-1-oxo-isoindolin-2-yl]-N-thiazol-2-yl-acetamide]	< 50 nM	< 50 nM	< 50 nM			
Cn1nc(N2CCC(=O)NC2=O)c2ccc(C3CCN(CC(=O)N4CCN(c5ccc(-c6cc(F)c7c(c6)C(=O)N(C(C(=O)Nc6nccs6)c6ncn8c6CCC8)C7)cc5)CC4)CC3)cc21 (stereo not drawn) [Compound 17, 2-(6,7-dihydro-5H-pyrrolo[1,2-c]imidazol-1-yl)-2-(6-(4-(4-(2-(4-(3-(2,4-dioxotetrahydropyrimidin-1(2H)-yl)-1-methyl-1H-indazol-6-yl)piperidin-1-yl)acetyl)piperazin-1-yl)phenyl)-4-fluoro-1-oxoisoindolin-2-yl)-N-(thiazol-2-yl)acetamide]	< 50 nM	< 50 nM	< 50 nM			
O=C1CC[C@H](Nc2ccc(C3CCN(CC(=O)N4CCN(c5ccc(-c6cc(F)c7c(c6)C(=O)N(C(C(=O)Nc6nccs6)c6ncn8c6C[C@@H](F)C8)C7)cc5)CC4)CC3)c(F)c2)C(=O)N1 (stereo partly drawn) [Compound 44, 2-[6-[4-[4-[2-[4-[4-[[(3S)-2,6-dioxo-3-piperidyl]amino]-2-fluoro-phenyl]-1-piperidyl]acetyl]piperazin-1-yl]phenyl]-4-fluoro-1-oxo-isoindolin-2-yl]-2-[(6R)-6-fluoro-6,7-dihydro-5H-pyrrolo[1,2-c]imidazol-1-yl]-N-thiazol-2-yl-acetamide]	< 50 nM	< 50 nM	< 50 nM			
O=C1CCC(Nc2ccc(C3CCN(CC(=O)N4CCN(Cc5ccc(-c6cc(F)c7c(c6)C(=O)N(C(C(=O)Nc6nccs6)c6ncn8c6CCC8)C7)cc5)CC4)CC3)c(F)c2)C(=O)N1 (stereo not drawn) [Compound 57, 2-(6,7-dihydro-5H-pyrrolo[1,2-c]imidazol-1-yl)-2-[6-[4-[[4-[2-[4-[4-[(2,6-dioxo-3-piperidyl)amino]-2-fluoro-phenyl]-1-piperidyl]acetyl]piperazin-1-yl]methyl]phenyl]-4-fluoro-1-oxo-isoindolin-2-yl]-N-thiazol-2-yl-acetamide]	< 50 nM	< 50 nM	< 50 nM			
O=C1CC[C@H](Nc2ccc(C3CCN(C(=O)CN4CCN(Cc5ccc(-c6cc(F)c7c(c6)C(=O)N(C(C(=O)Nc6nccs6)c6ncn8c6CCC8)C7)cc5)CC4)CC3)c(F)c2)C(=O)N1 (stereo partly drawn) [Compound 59, 2-(6,7-dihydro-5H-pyrrolo[1,2-c]imidazol-1-yl)-2-[6-[4-[[4-[2-[4-[4-[[(3S)-2,6-dioxo-3-piperidyl]amino]-2-fluoro-phenyl]-1-piperidyl]-2-oxo-ethyl]piperazin-1-yl]methyl]phenyl]-4-fluoro-1-oxo-isoindolin-2-yl]-N-thiazol-2-yl-acetamide]	< 50 nM	< 50 nM	< 50 nM			
O=C1CCC(Nc2ccc(C3CCN(CC(=O)N4CCN(c5ccc(-c6cc(F)c7c(c6)C(=O)N(C(C(=O)Nc6ccccn6)c6ncn8c6CCC8)C7)cc5)CC4)CC3)c(F)c2)C(=O)N1 (stereo not drawn) [Compound 20, 2-(6,7-dihydro-5H-pyrrolo[1,2-c]imidazol-1-yl)-2-[6-[4-[4-[2-[4-[4-[(2,6-dioxo-3-piperidyl)amino]-2-fluoro-phenyl]-1-piperidyl]acetyl]piperazin-1-yl]phenyl]-4-fluoro-1-oxo-isoindolin-2-yl]-N-(2-pyridyl)acetamide]	< 50 nM	< 50 nM	50 to 150 nM			
O=C1CC[C@H](Nc2ccc(C3CCN(CC(=O)N4CCC(c5ccc(-c6cc(F)c7c(c6)C(=O)N(C(C(=O)Nc6nccs6)c6ncn8c6CCC8)C7)cc5)CC4)CC3)c(F)c2)C(=O)N1 (stereo partly drawn) [Compound 24, 2-(6,7-dihydro-5H-pyrrolo[1,2-c]imidazol-1-yl)-2-(6-(4-(1-(2-(4-(4-(((S)-2,6-dioxopiperidin-3-yl)amino)-2-fluorophenyl)piperidin-1-yl)acetyl)piperidin-4-yl)phenyl)-4-fluoro-1-oxoisoindolin-2-yl)-N-(thiazol-2-yl)acetamide]	< 50 nM	< 50 nM	50 to 150 nM			
Cn1nc(N2CCC(=O)NC2=O)c2ccc([C@@H]3CCN(CC(=O)N4CC5(C4)CN(c4ccc(-c6cc(F)c7c(c6)C(=O)N(C(C(=O)Nc6nccs6)c6ncn8c6CCC8)C7)cc4)C5)CC3(F)F)cc21 (stereo partly drawn) [Compound 94, 2-(6,7-dihydro-5H-pyrrolo[1,2-c]imidazol-1-yl)-2-(6-(4-(6-(2-((S)-4-(3-(2,4-dioxotetrahydropyrimidin-1(2H)-yl)-1-methyl-1H-indazol-6-yl)-3,3-difluoropiperidin-1-yl)acetyl)-2,6-diazaspiro[3.3]heptan-2-yl)phenyl)-4-fluoro-1-oxoisoindolin-2-yl)-N-(thiazol-2-yl)acetamide]				< 50 nM	< 50 nM	< 50 nM
O=C1CCC(Nc2ccc(C3CCN(CC(=O)N4CCN(c5ccc(-c6cc(F)c7c(c6)C(=O)N(C(C(=O)Nc6nccs6)c6ncn8c6CCC8)C7)cc5)CC4)CC3)cc2)C(=O)N1 (stereo not drawn) [Compound 55, 2-(6,7-dihydro-5H-pyrrolo[1,2-c]imidazol-1-yl)-2-[6-[4-[4-[2-[4-[4-[(2,6-dioxo-3-piperidyl)amino]phenyl]-1-piperidyl]acetyl]piperazin-1-yl]phenyl]-4-fluoro-1-oxo-isoindolin-2-yl]-N-thiazol-2-yl-acetamide]	< 50 nM	< 50 nM	< 50 nM			

— patent US20240158418A1 (C4 Therapeutics, Inc., priority 2021, published 2024)
